Consider 37 compounds from ChEMBL document CHEMBL3098093, “Synthesis, modification and docking studies of 5-sulfonyl isatin derivatives as SARS-CoV 3C-like protease inhibitors” (Bioorg Med Chem, 2014).

One assay deals with Replicase polyprotein 1ab (Severe acute respiratory syndrome-related coronavirus, UniProt P0C6X7). The assay can be described thus: Inhibition of GST-tagged SARS coronavirus 3C-like protease by FRET assay.
`CN1C(=O)C(=O)c2cc(S(=O)(=O)N3CCOCC3)ccc21` showed an IC50 of 9.91 µM. That is a single-digit micromolar value.

The compound `O=C1Nc2ccc(S(=O)(=O)N3CCCCC3)cc2C1=O` showed an IC50 of 4.45 µM.

`O=C1Nc2ccc(S(=O)(=O)N3CCN(Cc4cccc(Cl)c4)CC3)cc2C1=O` yielded an IC50 of 31.7 µM.

The compound `CC1CCN(S(=O)(=O)c2ccc3c(c2)C(=O)C(=O)N3)CC1` showed an IC50 of 1.18 µM.

`O=C1Nc2ccc(S(=O)(=O)N3CCOCC3)cc2C1=O` registered an IC50 of 12.7 µM. Compared with the last compound, the IC50 is about 11-fold higher.

With `CC1CC(C)CN(S(=O)(=O)c2ccc3c(c2)C(=O)C(=O)N3C)C1` (stereo not drawn), half-maximal inhibition (IC50) required 2.82 µM. Compared with the last compound, the IC50 is about 4.5-fold lower.

Compound `CN1C(=O)C(=O)c2cc(S(=O)(=O)N3CCN(CCc4ccccc4)CC3)ccc21` displayed a 50% inhibitory concentration (IC50) of 13.9 µM.

For the compound `CN1CCN(S(=O)(=O)c2ccc3c(c2)C(=O)C(=O)N3Cc2ccccc2)CC1`, the IC50 was 67.2 µM.

For `CN1CCN(S(=O)(=O)c2ccc3c(c2)C(=O)C(=O)N3)CC1`, half-maximal inhibition (IC50) was put at 76.7 µM. The IC50 values of the last two compounds are within 1.5-fold of each other.

As to `O=C1C(=O)N(Cc2ccccc2)c2ccc(S(=O)(=O)N3CCOCC3)cc21`, half-maximal inhibition (IC50) was put at 13.9 µM.

As for `COc1cc(CN2CCN(S(=O)(=O)c3ccc4c(c3)C(=O)C(=O)N4)CC2)cc(OC)c1OC`, the IC50 is 32.1 µM.

Compound `CC1CCN(S(=O)(=O)c2ccc3c(c2)C(=O)C(=O)N3Cc2ccc3ccccc3c2)CC1` registered an IC50 of 17.8 µM.

`O=C1Nc2ccc(S(=O)(=O)N3CCN(c4ccccn4)CC3)cc2C1=O` returned an IC50 of 51.3 µM. Compared with the last compound, the IC50 is about 2.9-fold higher.

As for `CC1CCCCN1S(=O)(=O)c1ccc2c(c1)C(=O)C(=O)N2` (stereo not drawn), the IC50 is 2.25 µM.

`O=C1C(=O)N(Cc2ccc3ccccc3c2)c2ccc(S(=O)(=O)N3CCOCC3)cc21` had an IC50 of 39.9 µM.

With `CC1CC(C)CN(S(=O)(=O)c2ccc3c(c2)C(=O)C(=O)N3)C1` (stereo not drawn), the IC50 came out at 4.3 µM. This IC50 lies about 9.3-fold lower than the previous one.

On to `CN1C(=O)C(=O)c2cc(S(=O)(=O)N3CCN(c4ccccn4)CC3)ccc21`, for which the half-inhibitory concentration (IC50) worked out at 5.52 µM.

Turning to `CN1CCN(S(=O)(=O)c2ccc3c(c2)C(=O)C(=O)N3Cc2ccc3ccccc3c2)CC1`, the 50% inhibitory concentration (IC50) worked out at 82.9 µM.

`O=C1Nc2ccc(S(=O)(=O)N3CCN(c4cccc(C(F)(F)F)c4)CC3)cc2C1=O` yielded an IC50 above 100 µM.

The compound `O=C1Nc2ccc(S(=O)(=O)N3CCN(c4ccc(F)cc4)CC3)cc2C1=O` displayed an IC50 above 100 µM.

The compound `O=C1Nc2ccc(S(=O)(=O)N3CCN(C(=O)c4ccco4)CC3)cc2C1=O` had an IC50 of 10.1 µM.

Compound `CC1CCN(S(=O)(=O)c2ccc3c(c2)C(=O)C(=O)N3C)CC1` yielded an IC50 of 1.04 µM.

With `O=C1Nc2ccc(S(=O)(=O)N3CCN(CCc4ccccc4)CC3)cc2C1=O`, the IC50 was determined as 34.9 µM.

`CN1CCN(S(=O)(=O)c2ccc3c(c2)C(=O)C(=O)N3C)CC1` showed an IC50 of 11.8 µM.

For the compound `CC1CCN(S(=O)(=O)c2ccc3c(c2)C(=O)C(=O)N3Cc2ccccc2)CC1`, inhibition was half-maximal at 1.69 µM (IC50).

Regarding `CC1CC(C)CN(S(=O)(=O)c2ccc3c(c2)C(=O)C(=O)N3Cc2ccccc2)C1` (stereo not drawn), the half-inhibitory concentration (IC50) is 4.7 µM.

As for `O=C1C(=O)N(Cc2ccccc2)c2ccc(S(=O)(=O)N3CCCCC3)cc21`, the midpoint of inhibition, the IC50, lay at 14 µM.

For a further assay, the target named is Replicase polyprotein 1ab (Severe acute respiratory syndrome-related coronavirus) (UniProt P0C6X7). Kind of assay: Inhibition of GST-tagged SARS coronavirus 3C-like protease at 1 mM by FRET assay.
`O=C1Nc2cc3c(cc2C1=O)CCC3`: the inhibition stood at 79.4%.

In turn, `O=C1Nc2ccc([N+](=O)[O-])cc2C1=O` showed an inhibition of 94%.

For the compound `COc1ccc2c(c1)C(=O)C(=O)N2`, the inhibition is 95.3%.

In turn, `O=C1Nc2ccc(C(=O)O)cc2C1=O` registered an inhibition of 44.8%.

`CN1CCN(S(=O)(=O)c2ccc3c(c2)C(=O)C(=O)N3)CC1` showed an inhibition of 98.6%.

`O=C1Nc2ccc(Cl)cc2C1=O` gave an inhibition of 84.2%.

`CC(=O)c1ccc2c(c1)C(=O)C(=O)N2`: the inhibition was 95.4%.

Consider `O=C1Nc2ccc(F)cc2C1=O`, for which the inhibition stood at 82.5%.

With `O=C1Nc2cccc(Br)c2C1=O`, the inhibition amounted to 68.4%.

`O=C1Nc2ccc(I)cc2C1=O` registered an inhibition of 86.7%.

As for `O=C1Nc2ccc(Br)cc2C1=O`, the inhibition is 90.5%.
